Laboratory results as given in PubChem BioAssay (NCI).
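How tested: cells in 96-well plates exposed to compound for 48 hours at five concentrations. GI50: concentration for 50% inhibition of growth. At the TGI there is no net growth.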

Columns and labels:
Test in all cases: growth of human tumour cells (NCI), 48 h
DU-145 prostate = system: DU-145 prostate
NCI-H460 lung = system: NCI-H460 lung
PC-3 prostate = system: PC-3 prostate
K-562 leukemia = system: K-562 leukemia
SW-620 colon = system: SW-620 colon
LOX IMVI melanoma = system: LOX IMVI melanoma
KM12 colon = system: KM12 colon
HT29 colon = system: HT29 colon
NCI-H226 lung = system: NCI-H226 lung
HCT-116 colon = system: HCT-116 colon
HOP-62 NSCLC = system: HOP-62 NSCLC
NCI/ADR-RES ovarian = system: NCI/ADR-RES ovarian
RPMI-8226 leukemia = system: RPMI-8226 leukemia
ACHN renal = system: ACHN renal
HCC-2998 colon = system: HCC-2998 colon
A549 NSCLC = system: A549 NSCLC
HCT-15 colon = system: HCT-15 colon
MCF7 breast = system: MCF7 breast
COLO 205 colon = system: COLO 205 colon
CCRF-CEM leukemia = system: CCRF-CEM leukemia
SN12C renal = system: SN12C renal
NCI-H23 lung = system: NCI-H23 lung
MDA-MB-231 breast = system: MDA-MB-231 breast
MOLT-4 leukemia = system: MOLT-4 leukemia
MALME-3M melanoma = system: MALME-3M melanoma
BT-549 breast = system: BT-549 breast
SK-MEL-2 melanoma = system: SK-MEL-2 melanoma
UACC-62 melanoma = system: UACC-62 melanoma
OVCAR-3 ovarian = system: OVCAR-3 ovarian
OVCAR-4 ovarian = system: OVCAR-4 ovarian
SNB-19 CNS = system: SNB-19 CNS
SNB-75 CNS = system: SNB-75 CNS
U251 CNS = system: U251 CNS
EKVX NSCLC = system: EKVX NSCLC
M14 melanoma = system: M14 melanoma
A498 renal = system: A498 renal
786-0 renal = system: 786-0 renal
SK-MEL-5 melanoma = system: SK-MEL-5 melanoma
CAKI-1 renal = system: CAKI-1 renal
SF-539 CNS = system: SF-539 CNS
OVCAR-5 ovarian = system: OVCAR-5 ovarian
TK-10 renal = system: TK-10 renal
SF-268 CNS = system: SF-268 CNS
UACC-257 melanoma = system: UACC-257 melanoma
OVCAR-8 ovarian = system: OVCAR-8 ovarian
HOP-92 NSCLC = system: HOP-92 NSCLC
HL-60(TB) leukemia = system: HL-60(TB) leukemia
UO-31 renal = system: UO-31 renal
IGROV1 ovarian = system: IGROV1 ovarian
HS 578T breast = system: HS 578T breast
SR leukemia = system: SR leukemia
SK-MEL-28 melanoma = system: SK-MEL-28 melanoma
NCI-H522 lung = system: NCI-H522 lung
SF-295 CNS = system: SF-295 CNS

Compound CC(C)(C)NCCC(O)c1cc2c(Cl)cc(Cl)cc2c2cc(C(F)(F)F)ccc12 (centres undefined) has a GI50 (DU-145 prostate) of 1.97 µM and a TGI (DU-145 prostate) of 3.5 µM.

Cc1cc(Nc2ccc(F)cc2)nc(N2CCN(c3ccnc4cc(Cl)ccc34)CC2)n1 gave a GI50 (NCI-H460 lung) of 2.95 µM, a TGI (NCI-H460 lung) of over 100 µM and a GI50 (PC-3 prostate) of 1.79 µM. The TGI (PC-3 prostate) was over 100 µM, the GI50 (K-562 leukemia) was 2.49 µM and the TGI (K-562 leukemia) was over 100 µM. It also gave a GI50 (SW-620 colon) of 3.44 µM, a TGI (SW-620 colon) of over 100 µM and a GI50 (LOX IMVI melanoma) of 2.94 µM. The TGI (LOX IMVI melanoma) was over 100 µM, the GI50 (KM12 colon) was 2.78 µM and the TGI (KM12 colon) was 75 µM. The GI50 (HT29 colon) was 2.96 µM, the TGI (HT29 colon) was over 100 µM and the GI50 (NCI-H226 lung) was 4.75 µM. It also gave a TGI (NCI-H226 lung) of over 100 µM, a GI50 (HCT-116 colon) of 2.15 µM and a TGI (HCT-116 colon) of over 100 µM. The GI50 (HOP-62 NSCLC) was 4.06 µM, the TGI (HOP-62 NSCLC) was over 100 µM and the GI50 (NCI/ADR-RES ovarian) was 2.88 µM. For the same compound, the TGI (NCI/ADR-RES ovarian) was over 100 µM, the GI50 (RPMI-8226 leukemia) was 2.25 µM and the TGI (RPMI-8226 leukemia) was over 100 µM. For the same compound, the GI50 (ACHN renal) was 2.84 µM, the TGI (ACHN renal) was over 100 µM and the GI50 (HCC-2998 colon) was 4.05 µM. For the same compound, the TGI (HCC-2998 colon) was over 100 µM, the GI50 (A549 NSCLC) was 3.75 µM and the TGI (A549 NSCLC) was over 100 µM. The GI50 (HCT-15 colon) was 2.27 µM, the TGI (HCT-15 colon) was over 100 µM and the GI50 (MCF7 breast) was 2.69 µM. For the same compound, the TGI (MCF7 breast) was over 100 µM, the GI50 (COLO 205 colon) was 1.8 µM and the TGI (COLO 205 colon) was 4.39 µM. The GI50 (CCRF-CEM leukemia) was 2.99 µM and the TGI (CCRF-CEM leukemia) was over 100 µM.

Compound CCCOC(=O)N[C@H]1CCc2cc(OC)c(OC)c(OC)c2-c2ccc(SC)c(=O)cc21 has a GI50 (SN12C renal) of under 0.01 µM, a TGI (SN12C renal) of over 100 µM and a GI50 (NCI-H23 lung) of under 0.01 µM. For the same compound, the TGI (NCI-H23 lung) was over 100 µM, the GI50 (MDA-MB-231 breast) was under 0.01 µM and the TGI (MDA-MB-231 breast) was 25.5 µM. For the same compound, the GI50 (MOLT-4 leukemia) was under 0.01 µM, the TGI (MOLT-4 leukemia) was 24.4 µM and the GI50 (NCI-H460 lung) was under 0.01 µM. The TGI (NCI-H460 lung) was 11.7 µM, the GI50 (PC-3 prostate) was under 0.01 µM and the TGI (PC-3 prostate) was over 100 µM. For the same compound, the GI50 (MALME-3M melanoma) was 0.0476 µM, the TGI (MALME-3M melanoma) was over 47.4 µM and the GI50 (BT-549 breast) was under 0.01 µM. The TGI (BT-549 breast) was 19.6 µM, the GI50 (K-562 leukemia) was under 0.01 µM and the TGI (K-562 leukemia) was 24.1 µM. It also gave a GI50 (SW-620 colon) of under 0.01 µM, a TGI (SW-620 colon) of 21.5 µM and a GI50 (SK-MEL-2 melanoma) of 0.463 µM. It also gave a TGI (SK-MEL-2 melanoma) of 90.1 µM, a GI50 (LOX IMVI melanoma) of under 0.01 µM and a TGI (LOX IMVI melanoma) of over 42.4 µM. The GI50 (KM12 colon) was under 0.01 µM, the TGI (KM12 colon) was over 38.6 µM and the GI50 (UACC-62 melanoma) was under 0.01 µM. For the same compound, the TGI (UACC-62 melanoma) was over 61.2 µM, the GI50 (OVCAR-3 ovarian) was under 0.01 µM and the TGI (OVCAR-3 ovarian) was under 0.0238 µM. It also gave a TGI (OVCAR-4 ovarian) of over 71.5 µM, a GI50 (SNB-19 CNS) of under 0.01 µM and a TGI (SNB-19 CNS) of over 100 µM. The GI50 (SNB-75 CNS) was under 0.01 µM, the TGI (SNB-75 CNS) was over 100 µM and the GI50 (HT29 colon) was under 0.01 µM. It also gave a TGI (HT29 colon) of over 39.4 µM, a GI50 (NCI-H226 lung) of under 0.01 µM and a TGI (NCI-H226 lung) of 10.6 µM. The GI50 (U251 CNS) was under 0.01 µM, the TGI (U251 CNS) was over 34.1 µM and the GI50 (HCT-116 colon) was under 0.01 µM. For the same compound, the TGI (HCT-116 colon) was 14.8 µM, the GI50 (EKVX NSCLC) was under 0.01 µM and the TGI (EKVX NSCLC) was over 100 µM. The GI50 (M14 melanoma) was under 0.01 µM, the GI50 (A498 renal) was under 0.01 µM and the GI50 (HOP-62 NSCLC) was under 0.01 µM. For the same compound, the TGI (HOP-62 NSCLC) was over 100 µM, the GI50 (786-0 renal) was under 0.01 µM and the TGI (786-0 renal) was over 100 µM. The GI50 (SK-MEL-5 melanoma) was under 0.01 µM, the TGI (SK-MEL-5 melanoma) was 0.018 µM and the GI50 (NCI/ADR-RES ovarian) was 0.0268 µM. For the same compound, the TGI (NCI/ADR-RES ovarian) was over 100 µM, the GI50 (CAKI-1 renal) was under 0.0201 µM and the TGI (CAKI-1 renal) was 24.2 µM. It also gave a GI50 (SF-539 CNS) of under 0.01 µM, a TGI (SF-539 CNS) of 0.173 µM and a GI50 (OVCAR-5 ovarian) of under 0.01 µM. It also gave a TGI (OVCAR-5 ovarian) of over 100 µM, a GI50 (RPMI-8226 leukemia) of under 0.01 µM and a TGI (RPMI-8226 leukemia) of 8.22 µM. It also gave a GI50 (TK-10 renal) of 3.61 µM, a TGI (TK-10 renal) of over 70.5 µM and a GI50 (ACHN renal) of under 0.01 µM. It also gave a TGI (ACHN renal) of 15.7 µM, a GI50 (SF-268 CNS) of under 0.01 µM and a TGI (SF-268 CNS) of over 54.1 µM. For the same compound, the GI50 (HCC-2998 colon) was under 0.01 µM, the TGI (HCC-2998 colon) was 4.92 µM and the GI50 (DU-145 prostate) was under 0.01 µM. The TGI (DU-145 prostate) was over 100 µM, the GI50 (UACC-257 melanoma) was 12.1 µM and the TGI (UACC-257 melanoma) was over 56.3 µM. It also gave a GI50 (A549 NSCLC) of under 0.01 µM, a TGI (A549 NSCLC) of over 100 µM and a GI50 (OVCAR-8 ovarian) of under 0.01 µM. For the same compound, the TGI (OVCAR-8 ovarian) was over 100 µM, the GI50 (HOP-92 NSCLC) was under 0.0182 µM and the TGI (HOP-92 NSCLC) was 16.1 µM. It also gave a GI50 (HL-60(TB) leukemia) of under 0.01 µM, a TGI (HL-60(TB) leukemia) of under 0.0129 µM and a GI50 (HCT-15 colon) of under 0.01 µM. For the same compound, the TGI (HCT-15 colon) was 12 µM, the TGI (UO-31 renal) was 42 µM and the GI50 (IGROV1 ovarian) was under 0.01 µM. It also gave a TGI (IGROV1 ovarian) of over 100 µM, a GI50 (HS 578T breast) of under 0.01 µM and a TGI (HS 578T breast) of over 100 µM. It also gave a GI50 (SR leukemia) of under 0.01 µM, a TGI (SR leukemia) of over 56.3 µM and a GI50 (SK-MEL-28 melanoma) of 10.1 µM. For the same compound, the TGI (SK-MEL-28 melanoma) was over 68.1 µM, the GI50 (MCF7 breast) was under 0.01 µM and the TGI (MCF7 breast) was over 100 µM. It also gave a GI50 (NCI-H522 lung) of under 0.01 µM, a TGI (NCI-H522 lung) of 7.25 µM and a GI50 (COLO 205 colon) of under 0.01 µM. The TGI (COLO 205 colon) was 0.0108 µM, the GI50 (CCRF-CEM leukemia) was under 0.01 µM and the TGI (CCRF-CEM leukemia) was 19.7 µM. For the same compound, the GI50 (SF-295 CNS) was under 0.01 µM and the TGI (SF-295 CNS) was 6.77 µM.
